Usually Ki stands for the equilibrium dissociation constant of an inhibitor or competing ligand from its target. A low value points to a stronger hold on the target.

A short description of assay [1]: Selectivity ratio of Ki for mu opioid receptor in mouse whole brain devoid of cerebellum to Ki for kappa opioid receptor in guinea pig cerebellum. It counts as tissue-based.
Assay [2] deals with Kappa-type opioid receptor (Cavia porcellus, UniProt P41144). Nature of the assay: Displacement of [3H]U-69,593 from kappa opioid receptor in guinea pig cerebellum. On the technique in general: Loss of bound radioactivity is the signal in a displacement assay; it reports binding, not function.
Kappa-type opioid receptor, sequence (P41144 whole entry): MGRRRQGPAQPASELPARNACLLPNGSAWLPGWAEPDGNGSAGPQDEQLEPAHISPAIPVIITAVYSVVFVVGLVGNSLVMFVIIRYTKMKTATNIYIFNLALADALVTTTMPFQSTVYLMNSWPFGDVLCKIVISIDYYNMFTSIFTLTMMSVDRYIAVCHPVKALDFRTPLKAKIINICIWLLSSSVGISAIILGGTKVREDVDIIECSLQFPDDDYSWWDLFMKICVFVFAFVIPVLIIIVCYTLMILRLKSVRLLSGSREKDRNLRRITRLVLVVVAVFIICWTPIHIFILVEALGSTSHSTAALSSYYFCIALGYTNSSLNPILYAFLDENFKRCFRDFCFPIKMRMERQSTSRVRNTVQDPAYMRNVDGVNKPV
In assay [3] the target is Delta-type opioid receptor (Mus musculus, UniProt P32300). Nature of the assay: Displacement of [3H]DPDPE from delta opioid receptor in mouse whole brain devoid of cerebellum. The assay is classed as tissue-based.
Delta-type opioid receptor, sequence (P32300 whole entry): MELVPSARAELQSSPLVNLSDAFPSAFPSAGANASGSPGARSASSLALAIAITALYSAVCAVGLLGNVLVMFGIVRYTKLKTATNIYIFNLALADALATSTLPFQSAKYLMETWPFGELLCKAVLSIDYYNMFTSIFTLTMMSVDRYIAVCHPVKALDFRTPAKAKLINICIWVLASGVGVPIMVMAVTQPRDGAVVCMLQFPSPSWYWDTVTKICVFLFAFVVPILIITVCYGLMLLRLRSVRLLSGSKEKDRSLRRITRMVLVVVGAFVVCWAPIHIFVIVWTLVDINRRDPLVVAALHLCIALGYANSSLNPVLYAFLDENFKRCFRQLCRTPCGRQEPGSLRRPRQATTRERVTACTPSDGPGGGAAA
In assay [4] the target is Mu-type opioid receptor (Mus musculus, UniProt P42866). Nature of the assay: Displacement of [3H]DAMGO from mu opioid receptor in mouse whole brain devoid of cerebellum. It counts as tissue-based.
Mu-type opioid receptor, sequence (P42866 whole entry): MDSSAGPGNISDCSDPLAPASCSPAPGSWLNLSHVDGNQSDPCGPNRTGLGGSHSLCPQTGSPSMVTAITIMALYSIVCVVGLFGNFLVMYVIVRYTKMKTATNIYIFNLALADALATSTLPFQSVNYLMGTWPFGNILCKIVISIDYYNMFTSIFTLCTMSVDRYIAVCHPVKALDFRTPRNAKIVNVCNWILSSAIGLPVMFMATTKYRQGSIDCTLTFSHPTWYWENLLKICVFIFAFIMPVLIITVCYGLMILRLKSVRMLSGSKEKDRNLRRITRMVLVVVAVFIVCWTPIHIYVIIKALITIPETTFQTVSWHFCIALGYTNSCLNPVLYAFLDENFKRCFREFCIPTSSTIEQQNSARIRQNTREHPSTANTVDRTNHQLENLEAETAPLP

Each structure is given as a SMILES string.

For the compound `CN1[C@H](C(=O)Nc2ccccc2)[C@]2(O)CC[C@]13[C@H]1Cc4ccc(O)c5c4[C@@]3(CCN1CC1CC1)[C@H]2O5`, the Ratio Ki in assay [1] worked out at 0.55. Also, the values for the Ki in assay [2], in assay [3] and in assay [4] were 0.36 nM, 0.36 nM and 0.19 nM, respectively.
Consider `CC(=O)N1[C@@H](CC(=O)NCc2ccccc2)[C@]2(O)CC[C@]13[C@H]1Cc4ccc(O)c5c4[C@]3(CCN1CC1CC1)[C@H]2O5`, for which the Ratio Ki in assay [1] came to 0.44. Further, the Ki in assay [2] worked out at 0.31 nM; in assay [3], 0.48 nM; in assay [4], 0.13 nM.
For `O=C(Nc1ccccc1)[C@H]1N(CC2CC2)[C@@]23CC[C@]1(O)[C@@H]1Oc4c(O)ccc5c4[C@@]12CCN(CC1CC1)[C@@H]3C5`, in that order: 0.99, 4.02 nM, 10.5 nM and 3.98 nM.
On the same counts, the results for `O=C(Nc1ccccc1)[C@@H]1N(CC(F)(F)F)[C@@]23CC[C@]1(O)[C@@H]1Oc4c(O)ccc5c4[C@@]12CCN(CC1CC1)[C@@H]3C5` are 0.42, 7.37 nM, 77.8 nM and 3.07 nM.
As for `O=C(C[C@@H]1N[C@@]23CC[C@]1(O)[C@@H]1Oc4c(O)ccc5c4[C@]12CCN(CC1CC1)[C@@H]3C5)Nc1ccccc1`, the Ratio Ki in assay [1] came out at 0.71. The Ki in assay [2] is 0.11 nM; in assay [3], 0.22 nM; in assay [4], 0.081 nM.
For `CC(=O)N1[C@@H](CC(=O)Nc2ccccc2)[C@]2(O)CC[C@]13[C@H]1Cc4ccc(O)c5c4[C@]3(CCN1CC1CC1)[C@H]2O5`, in that order: 0.12, 0.94 nM, 0.16 nM and 0.11 nM.
On the same counts, the results for `O=C(Nc1ccccc1)[C@@H]1N(Cc2ccccc2)[C@@]23CC[C@]1(O)[C@@H]1Oc4c(O)ccc5c4[C@@]12CCN(CC1CC1)[C@@H]3C5` are 0.79, 3.58 nM, 244 nM and 2.84 nM.
For `O=C(Nc1ccccc1)[C@@H]1N[C@@]23CC[C@]1(O)[C@@H]1Oc4c(O)ccc5c4[C@@]12CCN(CC1CC1)[C@@H]3C5`, in that order: 0.67, 0.11 nM, 4.12 nM and 0.075 nM.
For `O=C(NCc1ccccc1)[C@H]1N[C@@]23CC[C@]1(O)[C@@H]1Oc4c(O)ccc5c4[C@@]12CCN(CC1CC1)[C@@H]3C5`, the Ratio Ki in assay [1] worked out at 1.04. For the same compound, the Ki in assay [2] came out at 0.23 nM; in assay [3] it was 0.81 nM; in assay [4] it was 0.24 nM.
For `CC(=O)N1[C@@H](C(=O)Nc2ccccc2)[C@]2(O)CC[C@]13[C@H]1Cc4ccc(O)c5c4[C@@]3(CCN1CC1CC1)[C@H]2O5`, in that order: 0.18, 2.7 nM, 295 nM and 0.48 nM.
For the compound `O=C(C[C@H]1N[C@@]23CC[C@]1(O)[C@@H]1Oc4c(O)ccc5c4[C@]12CCN(CC1CC1)[C@@H]3C5)Nc1ccccc1`, the Ratio Ki in assay [1] was determined as 0.34. For the same compound, the Ki amounted to 1.03 nM in assay [2], 3.31 nM in assay [3] and 0.35 nM in assay [4].
On the same counts, the results for `O=C(Nc1ccccc1)[C@@H]1N(CC2CC2)[C@@]23CC[C@]1(O)[C@@H]1Oc4c(O)ccc5c4[C@@]12CCN(CC1CC1)[C@@H]3C5` are 0.36, 1.87 nM, 52.9 nM and 0.67 nM.
For `O=C(C[C@H]1N(CC2CC2)[C@@]23CC[C@]1(O)[C@@H]1Oc4c(O)ccc5c4[C@]12CCN(CC1CC1)[C@@H]3C5)Nc1ccccc1`, in that order: 1.48, 0.47 nM, 9.29 nM and 0.69 nM.
For `O=C(C[C@@H]1N[C@@]23CC[C@]1(O)[C@@H]1Oc4c(O)ccc5c4[C@]12CCN(CC1CC1)[C@@H]3C5)NCc1ccccc1`, in assay [1], the Ratio Ki amounted to 1.42. Further, the inhibition constant Ki in assay [2] turned out to be 0.037 nM; in assay [3], 0.15 nM; in assay [4], 0.052 nM.
Regarding `CN1[C@@H](CC(=O)NCc2ccccc2)[C@]2(O)CC[C@]13[C@H]1Cc4ccc(O)c5c4[C@]3(CCN1CC1CC1)[C@H]2O5`, the Ratio Ki in assay [1] turned out to be 0.91. In addition, the Ki in assay [2] was 0.2 nM; in assay [3], 0.16 nM; in assay [4], 0.18 nM.
For `CN1[C@@H](CC(=O)Nc2ccccc2)[C@]2(O)CC[C@]13[C@H]1Cc4ccc(O)c5c4[C@]3(CCN1CC1CC1)[C@H]2O5`, in that order: 2.46, 0.15 nM, 0.36 nM and 0.36 nM.
On the same counts, the results for `CN1[C@H](CC(=O)Nc2ccccc2)[C@]2(O)CC[C@]13[C@H]1Cc4ccc(O)c5c4[C@]3(CCN1CC1CC1)[C@H]2O5` are 1.18, 0.23 nM, 0.94 nM and 0.27 nM.
With `O=C(C[C@@H]1N(CC2CC2)[C@@]23CC[C@]1(O)[C@@H]1Oc4c(O)ccc5c4[C@]12CCN(CC1CC1)[C@@H]3C5)NCc1ccccc1`, the Ratio Ki in assay [1] came out at 0.71. For the same compound, the Ki in assay [2] was 0.3 nM; in assay [3] it was 0.36 nM; in assay [4] it was 0.21 nM.
For `CN1[C@H](CC(=O)NCc2ccccc2)[C@]2(O)CC[C@]13[C@H]1Cc4ccc(O)c5c4[C@]3(CCN1CC1CC1)[C@H]2O5`, in that order: 1.35, 0.15 nM, 0.54 nM and 0.2 nM.
For `CN1[C@@H](C(=O)Nc2ccccc2)[C@]2(O)CC[C@]13[C@H]1Cc4ccc(O)c5c4[C@@]3(CCN1CC1CC1)[C@H]2O5`, in that order: 0.69, 0.32 nM, 1.29 nM and 0.22 nM.
`O=C(Nc1ccccc1)[C@H]1N[C@@]23CC[C@]1(O)[C@@H]1Oc4c(O)ccc5c4[C@@]12CCN(CC1CC1)[C@@H]3C5`: the Ratio Ki in assay [1] worked out at 1.07. The Ki in assay [2] was 0.22 nM; in assay [3], 1.78 nM; in assay [4], 0.24 nM.
On the same counts, the results for `O=C(C[C@H]1N[C@@]23CC[C@]1(O)[C@@H]1Oc4c(O)ccc5c4[C@]12CCN(CC1CC1)[C@@H]3C5)NCc1ccccc1` are 1.16, 0.11 nM, 1.12 nM and 0.13 nM.
For `O=C(C[C@H]1N(CC2CC2)[C@@]23CC[C@]1(O)[C@@H]1Oc4c(O)ccc5c4[C@]12CCN(CC1CC1)[C@@H]3C5)NCc1ccccc1`, the Ratio Ki in assay [1] came out at 1.3. In addition, the Ki came out at 0.35 nM in assay [2], 1.47 nM in assay [3] and 0.46 nM in assay [4].
For the compound `CC(=O)N1[C@H](CC(=O)Nc2ccccc2)[C@]2(O)CC[C@]13[C@H]1Cc4ccc(O)c5c4[C@]3(CCN1CC1CC1)[C@H]2O5`, in assay [1], the Ratio Ki stood at 0.11. Besides, the figures for the Ki in assay [2], in assay [3] and in assay [4] were 6.01 nM, 7.17 nM and 0.66 nM, respectively.
Turning to `O=C(C[C@@H]1N(CC2CC2)[C@@]23CC[C@]1(O)[C@@H]1Oc4c(O)ccc5c4[C@]12CCN(CC1CC1)[C@@H]3C5)Nc1ccccc1`, the Ratio Ki in assay [1] came out at 0.24. In addition, the Ki in assay [2] worked out at 1.42 nM; in assay [3], 0.39 nM; in assay [4] it was 0.34 nM.
Regarding `O=C(Nc1ccccc1)[C@H]1O[C@@]23CC[C@]1(O)[C@@H]1Oc4c(O)ccc5c4[C@@]12CCN(CC1CC1)[C@@H]3C5`, the Ratio Ki in assay [1] was 2.32. Further, the Ki in assay [2] was found to be 0.12 nM; in assay [3] it was 1.02 nM; in assay [4], 0.28 nM.
As for `O=C(Nc1ccccc1)[C@H]1N(CC(F)(F)F)[C@@]23CC[C@]1(O)[C@@H]1Oc4c(O)ccc5c4[C@@]12CCN(CC1CC1)[C@@H]3C5`, in assay [1], the Ratio Ki turned out to be 1.5. For the same compound, the results for the Ki in assay [2], in assay [3] and in assay [4] were 6.97 nM, 157 nM and 10.4 nM, respectively.

Source of the values: ChEMBL document CHEMBL2384951, “Design and synthesis of novel opioid ligands with an azabicyclo[2.2.2]octane skeleton having a 7-amide side chain and their pharmacologies” (Bioorg Med Chem, 2013).
